The record followed here is the NIST ThermoML archive (doi:10.1016/j.jct.2017.12.022).

For data set [1] the following is noted: Crystal; DTA.
The nature of data set [2]: Molar enthalpy of transition or fusion. The conditions noted are these: Crystal; DSC.

± gives the expanded uncertainty stated by the source.

For the compound `COC(=O)c1ccc(C(=O)OC)cc1` [dimethyl 1,4-benzenedicarboxylate], in data set [1], the Normal melting temperature turned out to be 140.8 ± 1 °C. For the same compound, in data set [2], the “Molar enthalpy of transition or fusion” value was found to be 8.48 ± 0.191 kcal/mol.
